The record followed here is US9617267B2, “Compounds and methods for kinase modulation, and indications therefor” (Plexxikon Inc., priority 2009, dated 2017).

Series [1] deals with c-Raf-1 (Homo sapiens, UniProt P04049). Description: c-Raf-1 kinase activity biochemical assay (AlphaScreen, biotin-MEK1 phosphorylation). The gist of the method:
(§1)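 Compounds from a 0.1 mM DMSO stock were tested at 8 serially diluted points. Kinase reactions with 100 μM ATP (final) ran 45 min at room temperature, then were stopped with EDTA buffer containing anti-phospho-MEK1/2 antibody plus streptavidin donor and protein A acceptor beads.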
For orientation: In Alpha technology, singlet oxygen from a donor bead excites a nearby acceptor bead.

Series [2] addresses CYP2C19 (Homo sapiens (Human), UniProt P33261). Description: CYP enzyme inhibition, fluorescent substrate (CEC). In a few lines: (§2)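 First, 100 mM DMSO stocks are diluted into acetonitrile, then twofold through co-factor mix for 10 points. Next, mixtures are preincubated 10 min at 37 °C.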
Series [3] deals with CYP3A4(BFC) (Homo sapiens (Human), UniProt P08684). Description: CYP enzyme inhibition, fluorescent substrate BFC. The gist of the method: as §2
The target in series [4] is B-Raf (Homo sapiens (Human), UniProt P15056). Description: B-Raf kinase activity biochemical assay (AlphaScreen, biotin-MEK1 phosphorylation). Particulars: B-Raf. In a few lines:
as §1

Series [5] deals with B-Raf. The series is described as above. The conditions noted are these: for Biochemical activity ratio B/V600E: ratio of IC50 B-Raf / B-Raf V600E; for Biochemical activity ratio B/C: ratio of IC50 B-Raf / c-Raf-1. In a few lines:
as §1

Series [6] addresses CYP1A2 (Homo sapiens (Human), UniProt P05177). Kind of series: CYP enzyme inhibition, fluorescent substrate (CEC). The gist of the method: (§3)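 IC50 derived from loss of fluorescent metabolite across a 10-point 1:1 dilution series. CYP2D6: 1.5 pmol enzyme, 1.5 μM AMMC, 30 min at 37 °C, 409/530 nm; CYP1A2: 0.5 pmol, 5 μM CEC, 15 min, 409/460 nm. Compounds pre-incubated 10 min in NADPH-regenerating mix.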

Series [7] concerns the target B-Raf V600E (Homo sapiens (Human), UniProt P15056, V600E). Description: B-Raf V600E kinase activity biochemical assay (AlphaScreen, biotin-MEK1 phosphorylation). The conditions noted are these: for IC50: B-Raf V600E; for Biochemical activity ratio V600E/C: ratio of IC50 B-Raf V600E / c-Raf-1. In a few lines:
as §1

Series [8] concerns the target CYP2D6 (Homo sapiens (Human), UniProt P10635). Kind of series: CYP enzyme inhibition, fluorescent substrate (AMMC). It counts as in vitro ADME. The conditions noted are these: read-out: Cyp IC50 2D6. In a few lines:
as §3

Series [9] deals with CYP3A4(BQ) (Homo sapiens (Human), UniProt P08684). Description: CYP enzyme inhibition, fluorescent substrate BQ. The gist of the method: as §2
Series [10] in a line: Relative solubility by turbidity threshold concentration in aqueous buffers (pH 1.5, 4.5, 6.8, 7.4). The conditions noted are these: for turbidity threshold (L, M, H) 1.4: pH 1.4 [sic] (method: SGF pH 1.5); for turbidity threshold (L, M, H) 4.5: pH 4.5 (SIF); for turbidity threshold (L, M, H) 6.8: pH 6.8 (SIF); for turbidity threshold (L, M, H) 7.4: pH 7.4 (HEPES). It is filed as physicochemical. The gist of the method: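 Solubility class (high >250 μM, moderate 31.3–250 μM, low <31.3 μM) comes from the concentration where absorbance reaches a 0.01 threshold, averaged across 490/535/650 nm. Samples were compound dilutions from DMSO stock, 1 μL into 99 μL buffer at pH 1.5, 4.5, 6.8 or 7.4.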

The target in series [11] is CYP2C9 (Homo sapiens (Human), UniProt P11712). Kind of series: CYP enzyme inhibition, fluorescent substrate (MFC). The gist of the method: as §2
Setting [12] is: read-out: Cyp IC50 3A4(BFC), CYP3A4, substrate BFC.
[13] abbreviates: read-out: Cyp IC50 3A4(BQ), CYP3A4, substrate BQ.
Where [14] appears, read: read-out: Cyp IC50 2C9, CYP2C9, substrate MFC.
Where [15] appears, read: read-out: Cyp IC50 2C19, CYP2C19, substrate CEC.

Read-outs that look alike come from different tables or passages of the source.

Sequence of CYP2D6 (P10635 whole entry): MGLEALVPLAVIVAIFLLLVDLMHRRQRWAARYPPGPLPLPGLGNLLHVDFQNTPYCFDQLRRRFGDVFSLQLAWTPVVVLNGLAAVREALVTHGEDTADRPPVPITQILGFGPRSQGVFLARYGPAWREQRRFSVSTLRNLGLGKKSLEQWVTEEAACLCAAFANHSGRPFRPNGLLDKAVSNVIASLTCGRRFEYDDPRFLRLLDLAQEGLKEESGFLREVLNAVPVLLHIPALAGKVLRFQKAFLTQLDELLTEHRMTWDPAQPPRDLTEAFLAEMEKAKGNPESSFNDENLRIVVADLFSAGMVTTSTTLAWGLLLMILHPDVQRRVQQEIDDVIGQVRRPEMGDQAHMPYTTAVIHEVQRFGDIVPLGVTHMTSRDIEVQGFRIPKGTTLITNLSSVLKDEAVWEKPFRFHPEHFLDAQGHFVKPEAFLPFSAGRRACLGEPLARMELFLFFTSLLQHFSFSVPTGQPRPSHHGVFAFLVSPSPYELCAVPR
Sequence of c-Raf-1 (P04049 whole entry, looked up): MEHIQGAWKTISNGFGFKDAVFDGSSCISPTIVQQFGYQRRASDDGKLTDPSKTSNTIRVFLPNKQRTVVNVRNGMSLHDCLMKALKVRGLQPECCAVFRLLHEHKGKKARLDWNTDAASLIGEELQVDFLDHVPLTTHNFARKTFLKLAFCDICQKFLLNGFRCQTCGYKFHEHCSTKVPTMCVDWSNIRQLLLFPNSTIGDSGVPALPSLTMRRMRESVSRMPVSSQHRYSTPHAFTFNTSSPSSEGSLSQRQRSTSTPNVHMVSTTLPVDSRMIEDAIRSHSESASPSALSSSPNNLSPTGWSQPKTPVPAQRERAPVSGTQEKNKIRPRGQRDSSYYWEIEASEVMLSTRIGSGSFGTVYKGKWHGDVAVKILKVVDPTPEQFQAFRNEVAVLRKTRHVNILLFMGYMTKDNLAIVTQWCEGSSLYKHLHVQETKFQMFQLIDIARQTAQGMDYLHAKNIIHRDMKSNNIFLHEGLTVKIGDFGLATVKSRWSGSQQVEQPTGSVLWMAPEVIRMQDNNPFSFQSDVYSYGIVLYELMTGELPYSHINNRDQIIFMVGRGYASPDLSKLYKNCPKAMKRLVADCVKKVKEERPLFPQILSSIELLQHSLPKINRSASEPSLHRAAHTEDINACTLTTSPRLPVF
Sequence of CYP3A4(BFC) (P08684 whole entry): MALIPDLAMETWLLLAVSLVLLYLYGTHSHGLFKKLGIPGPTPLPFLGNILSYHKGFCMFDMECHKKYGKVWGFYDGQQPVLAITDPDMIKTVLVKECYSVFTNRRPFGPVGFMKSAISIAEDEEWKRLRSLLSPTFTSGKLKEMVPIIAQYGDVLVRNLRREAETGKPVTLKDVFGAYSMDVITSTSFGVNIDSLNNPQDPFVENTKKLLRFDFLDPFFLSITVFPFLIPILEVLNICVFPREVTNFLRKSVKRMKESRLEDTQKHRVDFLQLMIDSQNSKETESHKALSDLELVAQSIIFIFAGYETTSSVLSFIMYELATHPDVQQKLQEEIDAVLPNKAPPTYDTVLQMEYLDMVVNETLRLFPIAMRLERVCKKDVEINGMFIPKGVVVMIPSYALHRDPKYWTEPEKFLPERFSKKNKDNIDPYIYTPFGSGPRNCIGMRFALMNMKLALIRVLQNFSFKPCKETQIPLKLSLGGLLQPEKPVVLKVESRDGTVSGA
Sequence of CYP3A4(BQ) (P08684 whole entry): as above
Sequence of B-Raf V600E (P15056 whole entry V600E): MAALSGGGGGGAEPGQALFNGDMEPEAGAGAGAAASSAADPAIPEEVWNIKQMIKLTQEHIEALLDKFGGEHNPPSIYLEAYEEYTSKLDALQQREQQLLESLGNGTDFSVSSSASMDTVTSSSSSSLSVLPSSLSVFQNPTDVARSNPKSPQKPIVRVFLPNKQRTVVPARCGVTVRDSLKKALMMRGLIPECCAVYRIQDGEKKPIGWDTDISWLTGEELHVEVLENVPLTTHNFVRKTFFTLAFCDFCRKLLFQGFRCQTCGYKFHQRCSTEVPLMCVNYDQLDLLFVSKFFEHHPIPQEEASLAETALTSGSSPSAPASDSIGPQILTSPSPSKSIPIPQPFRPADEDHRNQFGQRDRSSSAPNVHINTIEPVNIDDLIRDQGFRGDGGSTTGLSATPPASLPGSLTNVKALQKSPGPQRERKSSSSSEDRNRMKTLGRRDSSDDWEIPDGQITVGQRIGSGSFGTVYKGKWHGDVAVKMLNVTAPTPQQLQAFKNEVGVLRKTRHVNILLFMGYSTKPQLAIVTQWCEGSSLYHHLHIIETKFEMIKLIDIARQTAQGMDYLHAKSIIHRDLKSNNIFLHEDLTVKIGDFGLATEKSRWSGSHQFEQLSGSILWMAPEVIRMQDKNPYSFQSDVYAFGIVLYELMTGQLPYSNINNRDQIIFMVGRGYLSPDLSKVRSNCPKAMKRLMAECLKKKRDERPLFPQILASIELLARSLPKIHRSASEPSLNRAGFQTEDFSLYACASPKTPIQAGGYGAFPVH
Sequence of CYP2C9 (P11712 whole entry): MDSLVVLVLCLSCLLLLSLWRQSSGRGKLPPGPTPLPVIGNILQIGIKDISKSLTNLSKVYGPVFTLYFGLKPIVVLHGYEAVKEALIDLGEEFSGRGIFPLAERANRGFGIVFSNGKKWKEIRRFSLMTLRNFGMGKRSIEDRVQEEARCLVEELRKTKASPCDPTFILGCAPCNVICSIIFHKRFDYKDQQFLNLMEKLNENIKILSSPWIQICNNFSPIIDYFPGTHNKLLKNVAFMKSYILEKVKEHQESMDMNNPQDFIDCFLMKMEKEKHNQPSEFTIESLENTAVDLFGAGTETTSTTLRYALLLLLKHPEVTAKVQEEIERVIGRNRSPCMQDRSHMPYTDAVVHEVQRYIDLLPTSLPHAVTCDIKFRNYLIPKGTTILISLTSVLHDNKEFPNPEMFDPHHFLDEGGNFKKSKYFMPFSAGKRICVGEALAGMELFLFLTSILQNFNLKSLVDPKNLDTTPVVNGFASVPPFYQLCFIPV
Sequence of CYP1A2 (P05177 whole entry): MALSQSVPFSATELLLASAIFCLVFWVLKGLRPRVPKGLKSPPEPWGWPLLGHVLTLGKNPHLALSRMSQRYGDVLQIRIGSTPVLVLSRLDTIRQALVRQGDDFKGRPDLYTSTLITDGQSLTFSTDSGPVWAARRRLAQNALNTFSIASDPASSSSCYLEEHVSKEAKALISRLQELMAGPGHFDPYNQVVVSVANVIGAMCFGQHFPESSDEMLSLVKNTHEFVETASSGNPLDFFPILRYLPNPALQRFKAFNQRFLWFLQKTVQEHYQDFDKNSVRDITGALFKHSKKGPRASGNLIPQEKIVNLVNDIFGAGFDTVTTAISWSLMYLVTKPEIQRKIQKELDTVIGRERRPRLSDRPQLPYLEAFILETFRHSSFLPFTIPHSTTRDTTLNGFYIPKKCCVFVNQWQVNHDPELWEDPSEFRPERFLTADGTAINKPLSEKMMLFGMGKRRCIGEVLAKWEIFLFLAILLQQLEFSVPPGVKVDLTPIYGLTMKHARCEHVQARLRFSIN
Sequence of CYP2C19 (P33261 whole entry): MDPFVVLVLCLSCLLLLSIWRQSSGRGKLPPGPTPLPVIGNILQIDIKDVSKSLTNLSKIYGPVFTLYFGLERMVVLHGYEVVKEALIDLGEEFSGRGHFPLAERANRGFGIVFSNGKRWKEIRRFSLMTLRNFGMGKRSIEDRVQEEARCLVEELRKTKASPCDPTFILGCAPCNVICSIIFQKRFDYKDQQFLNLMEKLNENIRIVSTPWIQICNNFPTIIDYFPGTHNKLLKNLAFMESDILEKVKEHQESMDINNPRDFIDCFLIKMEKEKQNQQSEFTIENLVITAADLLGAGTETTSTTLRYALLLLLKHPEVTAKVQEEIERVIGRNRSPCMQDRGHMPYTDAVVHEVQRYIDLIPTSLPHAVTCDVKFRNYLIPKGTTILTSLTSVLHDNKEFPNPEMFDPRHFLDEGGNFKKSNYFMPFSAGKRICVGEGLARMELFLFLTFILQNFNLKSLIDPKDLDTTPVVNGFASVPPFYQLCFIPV
Sequence of B-Raf (Homo sapiens (Human), UniProt P15056) (P15056 whole entry): as the sequence (P15056 whole entry V600E) above, with E600V counted along it

Broadly, the IC50 is the midpoint of a concentration-inhibition curve. For `CCCS(=O)(=O)Nc1ccc(F)c(C(=O)c2c[nH]c3ncc(C)c(Cl)c23)c1F` [P-2001, Propane-1-sulfonic acid [3-(4-chloro-5-methyl-1H-pyrrolo[2,3-b]pyridine-3-carbonyl)-2,4-difluoro-phenyl]-amide], the IC50 in [1] was under 0.1 µM; in series [2] it was 5 to 10 µM; in series [3], over 10 µM; in series [4], under 0.1 µM; in [6], over 10 µM; in [7], under 0.1 µM. For the same compound, the IC50 in series [8], in series [9] and in series [11] was over 10 µM each time. Besides, the “Biochemical activity ratio B/V600E” value in series [5] is on record as 0.1-10. The “Biochemical activity ratio B/C” value in series [5] is given as 0.1-10. The “Biochemical activity ratio V600E/C” value in series [7] is reported as 0.1-10. The “turbidity threshold (L, M, H) 1.4” value in series [10] is given as “M (moderate solubility if the threshold concentration is 31.3 μM to 250 μM)”. In addition, the “turbidity threshold (L, M, H) 4.5” value in series [10] is reported as “M (moderate solubility if the threshold concentration is 31.3 μM to 250 μM)”. Besides, the “turbidity threshold (L, M, H) 6.8” value in series [10] is listed as “M (moderate solubility if the threshold concentration is 31.3 μM to 250 μM)”. In series [10], the “turbidity threshold (L, M, H) 7.4” value is “M (moderate solubility if the threshold concentration is 31.3 μM to 250 μM)”.

`O=C(c1c(F)ccc(NS(=O)(=O)c2ccc(C(F)(F)F)cc2)c1F)c1c[nH]c2ncnc(NC3CC3)c12` [P-1011, N-[3-(4-Cyclopropylamino-7H-pyrrolo[2,3-d]pyrimidine-5-carbonyl)-2,4-difluoro-phenyl]-4-trifluoromethyl-benzenesulfonamide]: the IC50 in series [1] is under 0.1 µM; in [2] it was 5 to 10 µM; in series [3] (setting [12]), under 5 µM; in series [4], under 0.1 µM; in series [6] (human, 15 min), over 10 µM; in series [7], over 0.1 µM. Also, the IC50 in series [8], in [9] (setting [13]) and in series [11] (setting [14]) was over 10 µM in each case. Besides, the “Biochemical activity ratio B/V600E” value in series [5] was 0.1-10. Also, the “Biochemical activity ratio B/C” value in series [5] is on record as over 10. Further, the “Biochemical activity ratio V600E/C” value in series [7] is over 10. Also, the “turbidity threshold (L, M, H) 1.4” value in [10] is given as “M (moderate solubility if the threshold concentration is 31.3 μM to 250 μM)”. Further, the “turbidity threshold (L, M, H) 4.5” value in series [10] is listed as “L (low solubility if the threshold concentration is <31.3 μM)”. For the same compound, the “turbidity threshold (L, M, H) 6.8” value in [10] is “L (low solubility if the threshold concentration is <31.3 μM)”. In addition, the “turbidity threshold (L, M, H) 7.4” value in series [10] is “L (low solubility if the threshold concentration is <31.3 μM)”.

Regarding `Cc1cc(C)cc(S(=O)(=O)Nc2ccc(F)c(C(=O)c3c[nH]c4ncnc(NC(C)C)c34)c2F)c1` [P-1045, N-[2,4-Difluoro-3-(4-isopropylamino-7H-pyrrolo[2,3-d]pyrimidine-5-carbonyl)-phenyl]-3,5-dimethyl-benzenesulfonamide], the IC50 in [1] is under 0.1 µM; in [2] (setting [15]) it was under 5 µM; in series [3], 5 to 10 µM; in [4], over 0.1 µM; in series [6] (read-out: Cyp IC50 1A2, CYP1A2, substrate CEC), over 10 µM; in series [7], under 0.1 µM. Further, the IC50 is over 10 µM in series [8], over 10 µM in [9] (setting [13]) and 5 to 10 µM in series [11]. Further, the “Biochemical activity ratio B/V600E” value in [5] is 0.1-10. In [5], the “Biochemical activity ratio B/C” value was over 10. Besides, the “Biochemical activity ratio V600E/C” value in series [7] is on record as 0.1-10. The “turbidity threshold (L, M, H) 1.4” value in series [10] is recorded as “M (moderate solubility if the threshold concentration is 31.3 μM to 250 μM)”. Besides, the “turbidity threshold (L, M, H) 4.5” value in [10] is on record as “L (low solubility if the threshold concentration is <31.3 μM)”. Besides, the “turbidity threshold (L, M, H) 6.8” value in series [10] is listed as “L (low solubility if the threshold concentration is <31.3 μM)”. The “turbidity threshold (L, M, H) 7.4” value in series [10] is “L (low solubility if the threshold concentration is <31.3 μM)”.

Turning to `CCCS(=O)(=O)Nc1ccc(F)c(C(=O)c2c[nH]c3ncc(C#N)c(OC)c23)c1F` [P-2005, Propane-1-sulfonic acid [3-(5-cyano-4-methoxy-1H-pyrrolo[2,3-b]pyridine-3-carbonyl)-2,4-difluoro-phenyl]-amide], the IC50 in series [1] is under 0.1 µM; in series [2] it was over 10 µM; in series [3] it was over 10 µM; in [4] it was under 0.1 µM; in series [6], over 10 µM; in series [7] it was under 0.1 µM. Besides, the IC50 in series [8] was over 10 µM; in series [9] it was over 10 µM; in [11], under 5 µM. The “Biochemical activity ratio B/V600E” value in series [5] is listed as 0.1-10. Moreover, in series [5], the “Biochemical activity ratio B/C” value is on record as 0.1-10. The “Biochemical activity ratio V600E/C” value in [7] is recorded as 0.1-10. For the same compound, the “turbidity threshold (L, M, H) 1.4” value in [10] is given as “M (moderate solubility if the threshold concentration is 31.3 μM to 250 μM)”. For the same compound, the “turbidity threshold (L, M, H) 4.5” value in [10] is “L (low solubility if the threshold concentration is <31.3 μM)”. Further, the “turbidity threshold (L, M, H) 6.8” value in series [10] was “L (low solubility if the threshold concentration is <31.3 μM)”. For the same compound, the “turbidity threshold (L, M, H) 7.4” value in series [10] is recorded as “M (moderate solubility if the threshold concentration is 31.3 μM to 250 μM)”.

`Cc1ncnc2[nH]cc(C(=O)c3c(F)ccc(NS(=O)(=O)c4ccc(C(C)C)cc4)c3F)c12` [P-1009, N-[2,4-Difluoro-3-(4-methyl-7H-pyrrolo[2,3-d]pyrimidine-5-carbonyl)-phenyl]-4-isopropyl-benzenesulfonamide]: the IC50 was under 0.1 µM in [1]; 5 to 10 µM in series [2]; under 5 µM in series [3] (setting [12]); over 0.1 µM in series [4]; over 10 µM in series [6] (human, 15 min); over 0.1 µM in series [7]. For the same compound, the IC50 is over 10 µM in [8], over 10 µM in series [9] (setting [13]) and under 5 µM in series [11] (setting [14]). Also, the “Biochemical activity ratio B/V600E” value in series [5] was 0.1-10. Also, the “Biochemical activity ratio B/C” value in series [5] is reported as over 10. Moreover, in [7], the “Biochemical activity ratio V600E/C” value is on record as over 10. Besides, in series [10], the “turbidity threshold (L, M, H) 1.4” value is on record as “H (high solubility if the threshold concentration is >250 μm)”. Moreover, the “turbidity threshold (L, M, H) 4.5” value in [10] was “L (low solubility if the threshold concentration is <31.3 μM)”. Besides, the “turbidity threshold (L, M, H) 6.8” value in [10] is recorded as “L (low solubility if the threshold concentration is <31.3 μM)”. Moreover, the “turbidity threshold (L, M, H) 7.4” value in [10] is given as “M (moderate solubility if the threshold concentration is 31.3 μM to 250 μM)”.

Turning to `CN(C)CCNc1ncnc2[nH]cc(C(=O)c3c(F)ccc(NS(=O)(=O)c4ccc(C(F)(F)F)cc4)c3F)c12` [P-1059, N-{3-[4-(2-Dimethylamino-ethylamino)-7H-pyrrolo[2,3-d]pyrimidine-5-carbonyl]-2,4-difluoro-phenyl}-4-trifluoromethyl-benzenesulfonamide], the IC50 is under 0.1 µM in series [1]; over 10 µM in series [2] (setting [15]); over 10 µM in [3] (setting [12]); over 0.1 µM in [4]; over 10 µM in series [6] (human, 15 min); over 0.1 µM in series [7]. In addition, the IC50 in series [8], in series [9] (setting [13]) and in series [11] (setting [14]) was over 10 µM in each case. The “Biochemical activity ratio B/V600E” value in [5] is 0.1-10. Besides, the “Biochemical activity ratio B/C” value in series [5] was 0.1-10. In addition, the “Biochemical activity ratio V600E/C” value in series [7] was over 10. Moreover, the “turbidity threshold (L, M, H) 1.4” value in [10] was “H (high solubility if the threshold concentration is >250 μm)”. The “turbidity threshold (L, M, H) 4.5” value in [10] is “M (moderate solubility if the threshold concentration is 31.3 μM to 250 μM)”. Further, the “turbidity threshold (L, M, H) 6.8” value in [10] was “M (moderate solubility if the threshold concentration is 31.3 μM to 250 μM)”. In addition, the “turbidity threshold (L, M, H) 7.4” value in series [10] was “M (moderate solubility if the threshold concentration is 31.3 μM to 250 μM)”.
